Earlier results as cited in patent US10695287B2, “AMPK agonist topical medication for the treatment of certain specific medical conditions, methods of use thereof and wound dressing employing the same” (CERSCI THERAPEUTICS, INC., priority 2015, dated 2020).

Test system: AMPK
Details: topical administration; animal model (rodents); literature (Price et al. 2013; Tillu et al. 2012)

Structure (SMILES): Oc1ccc(C=Cc2cc(O)cc(O)c2)cc1 [resveratrol]
- mitigation of pain: has shown efficacy in mitigation of pain
